{"source": "patent US8227406B2", "about": "“Antimicrobial peptides” (Dermagen AB, priority 2006, dated 2012)", "key": {"[1]": {"system": "Staphylococcus aureus ATCC29213", "assay": "Radial diffusion assay (RDA), S. aureus", "assay_type": "cell-based", "parameters": "Data (RDA antimicrobial activity, single replicates) / Mean (RDA antimicrobial activity): unit not given here", "settings": "S. aureus; for Data (RDA antimicrobial activity, single replicates): individual replicate; for Mean (RDA antimicrobial activity): mean of 3", "protocol": "(§1) Peptides. Peptides were from Sigma-Genosys, generated by a peptide synthesis platform (PEPscreen®, Custom Peptide Libraries, SigmaGenosys). Yield was ˜1-6 mg, and peptide length 20 amino acids. MALDI-ToF Mass Spectrometry was perfomed on these peptides. Average Crude Purity of 20mers was ˜60%. Peptides were supplied lyophilized and in a 96-well tube rack. Prior to biological testing the PEPscreen peptides were diluted in dH2O (5 mM stock), and stored at −20 C. This stock solution was used for the subsequent experiments.\n(§2) Eschericia coli ATCC25922, Staphylococcus aureus ATCC29213, and the fungal isolate Candida albicans ATCC90028 were obtained from the Department of Bacteriology, Lund University Hospital.\n(§3) Radial diffusion assays (RDA) were performed essentially as described earlier (Lehrer, R. I., Rosenman, M., Harwig, S. S., Jackson, R. & Eisenhauer, P. (1991) Ultrasensitive assays for endogenous antimicrobial polypeptides, J Immunol Methods. 137, 167-73). Briefly, bacteria (E. coli, S. aureus) or fungi (C. albicans) were grown to midlogarithmic phase in 10 ml of full-strength (3% w/v) trypticase soy broth (TSB) (Becton-Dickinson, Cockeysville, Md.). The microorganisms were washed once with 10 mM Tris, pH 7.4. 4×10^6 bacterial cfu or 1×10^5 fungal cfu was added to 5 ml of the underlay agarose gel, consisting of 0.03% (w/v) TSB, 1% (w/v) low-electroendoosmosistype (Low-EEO) agarose (Sigma, St Louise Mo.) and a final concentration of 0.02% (v/v) Tween 20 (Sigma). The underlay was poured into a Ø 85 mm petri dish. After agarose solidified, 4 mm-diameter wells were punched and 6 μl of test sample was added to each well. Plates were incubated at 37° C. for 3 hours to allow diffusion of the peptides. The underlay gel was then covered with 5 ml of molten overlay (6% TSB and 1% Low-EEO agarose in dH2O). Antimicrobial activity of a peptide is visualized as a clear zone around each well after 18-24 hours of incubation at 37° C. for bacteria and 28° C. for Candida albicans. Other examples of peptides that were screened and found to show an increased effect against the above mentioned microorgansism are listed below. Some of the results are found in table 1c showing the effects against C. albicans, table 1d E. coli and table 1e S. aureus."}, "[2]": {"system": "Eschericia coli ATCC25922", "assay": "Radial diffusion assay (RDA), E. coli", "assay_type": "cell-based, Escherichia coli", "parameters": "Data (RDA antimicrobial activity, single replicates) / Mean (RDA antimicrobial activity): unit not given here", "settings": "E. coli; for Data (RDA antimicrobial activity, single replicates): individual replicate; for Mean (RDA antimicrobial activity): mean of 3", "protocol": "as §1, §2, §3"}, "[3]": {"system": "Candida albicans ATCC90028", "assay": "Radial diffusion assay (RDA), C. albicans", "assay_type": "cell-based", "parameters": "unit not given here", "settings": "Table 1c; for RDA Data (single replicates), C. albicans: individual values", "protocol": "as §1, §2, §3"}}, "note": "Several values for one entry are separate records, joined by “and”; a condition that tells them apart may be missing. Equal values may be shown once.", "data": [{"substance": "GKR-22: growth factor derived peptide, untagged parent of GKR22WWW; sequence not printed (GKRKKKGKGLGKKRDPCLRKYK; listed as Homo sapiens)", "values": [{"measurement": "Data (RDA antimicrobial activity, single replicates)", "setting": "[1]; peptide 0.1 μM", "result": 0}, {"measurement": "Mean (RDA antimicrobial activity)", "setting": "[1]; peptide 0.1 μM", "result": 0.00}, {"measurement": "Data (RDA antimicrobial activity, single replicates)", "setting": "[1]; peptide 0.5 μM", "result": 0}, {"measurement": "Mean (RDA antimicrobial activity)", "setting": "[1]; peptide 0.5 μM", "result": 0.00}, {"measurement": "Data (RDA antimicrobial activity, single replicates)", "setting": "[1]; peptide 1 μM", "result": "0.4 and 0.26 and 0.25"}, {"measurement": "Mean (RDA antimicrobial activity)", "setting": "[1]; peptide 1 μM", "result": 0.30}, {"measurement": "Data (RDA antimicrobial activity, single replicates)", "setting": "[1]; peptide 5 μM", "result": "1.87 and 1.67 and 2.03"}, {"measurement": "Mean (RDA antimicrobial activity)", "setting": "[1]; peptide 5 μM", "result": 1.86}, {"measurement": "Data (RDA antimicrobial activity, single replicates)", "setting": "[1]; peptide 10 μM", "result": "2.37 and 2.46 and 1.95"}, {"measurement": "Mean (RDA antimicrobial activity)", "setting": "[1]; peptide 10 μM", "result": 2.26}, {"measurement": "Data (RDA antimicrobial activity, single replicates)", "setting": "[1]; peptide 50 μM", "result": "3.03 and 3.09 and 2.96"}, {"measurement": "Mean (RDA antimicrobial activity)", "setting": "[1]; peptide 50 μM", "result": 3.03}, {"measurement": "Data (RDA antimicrobial activity, single replicates)", "setting": "[1]; peptide 100 μM", "result": "3.88 and 3.94 and 3.07"}, {"measurement": "Mean (RDA antimicrobial activity)", "setting": "[1]; peptide 100 μM", "result": 3.63}, {"measurement": "Data (RDA antimicrobial activity, single replicates)", "setting": "[2]; peptide 0.1 μM", "result": 0}, {"measurement": "Mean (RDA antimicrobial activity)", "setting": "[2]; peptide 0.1 μM", "result": 0.00}, {"measurement": "Data (RDA antimicrobial activity, single replicates)", "setting": "[2]; peptide 0.5 μM", "result": 0}, {"measurement": "Mean (RDA antimicrobial activity)", "setting": "[2]; peptide 0.5 μM", "result": 0.00}, {"measurement": "Data (RDA antimicrobial activity, single replicates)", "setting": "[2]; peptide 1 μM", "result": 0}, {"measurement": "Mean (RDA antimicrobial activity)", "setting": "[2]; peptide 1 μM", "result": 0.00}, {"measurement": "Data (RDA antimicrobial activity, single replicates)", "setting": "[2]; peptide 5 μM", "result": "1.88 and 1.85 and 2.07"}, {"measurement": "Mean (RDA antimicrobial activity)", "setting": "[2]; peptide 5 μM", "result": 1.93}, {"measurement": "Data (RDA antimicrobial activity, single replicates)", "setting": "[2]; peptide 10 μM", "result": "2.07 and 3.47 and 2.74"}, {"measurement": "Mean (RDA antimicrobial activity)", "setting": "[2]; peptide 10 μM", "result": 2.76}, {"measurement": "Data (RDA antimicrobial activity, single replicates)", "setting": "[2]; peptide 50 μM", "result": "3.68 and 3.65 and 3.61"}, {"measurement": "Mean (RDA antimicrobial activity)", "setting": "[2]; peptide 50 μM", "result": 3.65}, {"measurement": "Data (RDA antimicrobial activity, single replicates)", "setting": "[2]; peptide 100 μM", "result": "4.5 and 5.24 and 4.19"}, {"measurement": "Mean (RDA antimicrobial activity)", "setting": "[2]; peptide 100 μM", "result": 4.64}, {"measurement": "RDA Mean, C. albicans", "setting": "[3]; peptide 0.1 μM", "result": 0.00}, {"measurement": "RDA Data (single replicates), C. albicans", "setting": "[3]; peptide 0.1 μM", "result": 0.00}, {"measurement": "RDA Mean, C. albicans", "setting": "[3]; peptide 0.5 μM", "result": 0.00}, {"measurement": "RDA Data (single replicates), C. albicans", "setting": "[3]; peptide 0.5 μM", "result": 0.00}, {"measurement": "RDA Mean, C. albicans", "setting": "[3]; peptide 1 μM", "result": 0.00}, {"measurement": "RDA Data (single replicates), C. albicans", "setting": "[3]; peptide 1 μM", "result": 0.00}, {"measurement": "RDA Mean, C. albicans", "setting": "[3]; peptide 5 μM", "result": 0.00}, {"measurement": "RDA Data (single replicates), C. albicans", "setting": "[3]; peptide 5 μM", "result": 0.00}, {"measurement": "RDA Mean, C. albicans", "setting": "[3]; peptide 10 μM", "result": 0.00}, {"measurement": "RDA Data (single replicates), C. albicans", "setting": "[3]; peptide 10 μM", "result": 0.00}, {"measurement": "RDA Mean, C. albicans", "setting": "[3]; peptide 50 μM", "result": 1.04}, {"measurement": "RDA Data (single replicates), C. albicans", "setting": "[3]; peptide 50 μM", "result": "1.04 and 1.08 and 1.01"}, {"measurement": "RDA Mean, C. albicans", "setting": "[3]; peptide 100 μM", "result": 3.16}, {"measurement": "RDA Data (single replicates), C. albicans", "setting": "[3]; peptide 100 μM", "result": "3.66 and 3.31 and 2.50"}]}, {"substance": "GKRKKKGKGLGKKRDPCLRKYKWWW [GKR-22-WWW]", "values": [{"measurement": "Data (RDA antimicrobial activity, single replicates)", "setting": "[1]; peptide 0.1 μM", "result": 0}, {"measurement": "Mean (RDA antimicrobial activity)", "setting": "[1]; peptide 0.1 μM", "result": 0.00}, {"measurement": "Data (RDA antimicrobial activity, single replicates)", "setting": "[1]; peptide 0.5 μM", "result": "0.36 and 0.49 and 0.6"}, {"measurement": "Mean (RDA antimicrobial activity)", "setting": "[1]; peptide 0.5 μM", "result": 0.48}, {"measurement": "Data (RDA antimicrobial activity, single replicates)", "setting": "[1]; peptide 1 μM", "result": "3.6 and 3.67 and 3.78"}, {"measurement": "Mean (RDA antimicrobial activity)", "setting": "[1]; peptide 1 μM", "result": 3.68}, {"measurement": "Data (RDA antimicrobial activity, single replicates)", "setting": "[1]; peptide 5 μM", "result": "3.87 and 4.57 and 4.53"}, {"measurement": "Mean (RDA antimicrobial activity)", "setting": "[1]; peptide 5 μM", "result": 4.32}, {"measurement": "Data (RDA antimicrobial activity, single replicates)", "setting": "[1]; peptide 10 μM", "result": "6.04 and 6.87 and 5.73"}, {"measurement": "Mean (RDA antimicrobial activity)", "setting": "[1]; peptide 10 μM", "result": 6.21}, {"measurement": "Data (RDA antimicrobial activity, single replicates)", "setting": "[1]; peptide 50 μM", "result": "7.12 and 8.12 and 7.41"}, {"measurement": "Mean (RDA antimicrobial activity)", "setting": "[1]; peptide 50 μM", "result": 7.55}, {"measurement": "Data (RDA antimicrobial activity, single replicates)", "setting": "[1]; peptide 100 μM", "result": "7.4 and 8.78 and 8.05"}, {"measurement": "Mean (RDA antimicrobial activity)", "setting": "[1]; peptide 100 μM", "result": 8.08}, {"measurement": "Data (RDA antimicrobial activity, single replicates)", "setting": "[2]; peptide 0.1 μM", "result": 0}, {"measurement": "Mean (RDA antimicrobial activity)", "setting": "[2]; peptide 0.1 μM", "result": 0.00}, {"measurement": "Data (RDA antimicrobial activity, single replicates)", "setting": "[2]; peptide 0.5 μM", "result": "0.14 and 0.85 and 0.17"}, {"measurement": "Mean (RDA antimicrobial activity)", "setting": "[2]; peptide 0.5 μM", "result": 0.39}, {"measurement": "Data (RDA antimicrobial activity, single replicates)", "setting": "[2]; peptide 1 μM", "result": "2.74 and 3.2 and 2.59"}, {"measurement": "Mean (RDA antimicrobial activity)", "setting": "[2]; peptide 1 μM", "result": 2.84}, {"measurement": "Data (RDA antimicrobial activity, single replicates)", "setting": "[2]; peptide 5 μM", "result": "2.97 and 3.58 and 3.2"}, {"measurement": "Mean (RDA antimicrobial activity)", "setting": "[2]; peptide 5 μM", "result": 3.25}, {"measurement": "Data (RDA antimicrobial activity, single replicates)", "setting": "[2]; peptide 10 μM", "result": "5.67 and 5.68 and 5.48"}, {"measurement": "Mean (RDA antimicrobial activity)", "setting": "[2]; peptide 10 μM", "result": 5.61}, {"measurement": "Data (RDA antimicrobial activity, single replicates)", "setting": "[2]; peptide 50 μM", "result": "6.61 and 6.64 and 6.47"}, {"measurement": "Mean (RDA antimicrobial activity)", "setting": "[2]; peptide 50 μM", "result": 6.57}, {"measurement": "Data (RDA antimicrobial activity, single replicates)", "setting": "[2]; peptide 100 μM", "result": "7.8 and 8.04 and 8.12"}, {"measurement": "Mean (RDA antimicrobial activity)", "setting": "[2]; peptide 100 μM", "result": 7.99}, {"measurement": "RDA Mean, C. albicans", "setting": "[3]; peptide 0.1 μM", "result": 0.00}, {"measurement": "RDA Data (single replicates), C. albicans", "setting": "[3]; peptide 0.1 μM", "result": 0.00}, {"measurement": "RDA Mean, C. albicans", "setting": "[3]; peptide 0.5 μM", "result": 0.00}, {"measurement": "RDA Data (single replicates), C. albicans", "setting": "[3]; peptide 0.5 μM", "result": 0.00}, {"measurement": "RDA Mean, C. albicans", "setting": "[3]; peptide 1 μM", "result": 0.00}, {"measurement": "RDA Data (single replicates), C. albicans", "setting": "[3]; peptide 1 μM", "result": 0.00}, {"measurement": "RDA Mean, C. albicans", "setting": "[3]; peptide 5 μM", "result": 0.00}, {"measurement": "RDA Data (single replicates), C. albicans", "setting": "[3]; peptide 5 μM", "result": 0.00}, {"measurement": "RDA Mean, C. albicans", "setting": "[3]; peptide 10 μM", "result": 0.66}, {"measurement": "RDA Data (single replicates), C. albicans", "setting": "[3]; peptide 10 μM", "result": "0.50 and 0.94 and 0.54"}, {"measurement": "RDA Mean, C. albicans", "setting": "[3]; peptide 50 μM", "result": 1.65}, {"measurement": "RDA Data (single replicates), C. albicans", "setting": "[3]; peptide 50 μM", "result": "1.95 and 1.59 and 1.40"}, {"measurement": "RDA Mean, C. albicans", "setting": "[3]; peptide 100 μM", "result": 5.55}, {"measurement": "RDA Data (single replicates), C. albicans", "setting": "[3]; peptide 100 μM", "result": "5.30 and 5.74 and 5.62"}]}]}
